Measured values from EP0908457B1, “3-(1,2-benzisothiazol- and isoxazol-5-Y1)-2,4(1H,3H)-pyrimidinedione or thione and 3-(1,2-benzisothiazol- and isoxazol-5-y1)-4(3H)-pyrimidinone or thione herbicidal agents” (BASF AKTIENGESELLSCHAFT, priority 1997, dated 1999).

Columns and labels:
[1] = system: Echinochloa oryzoides (Ard.) Fritsch.; experiment: Preemergence weed control under flooded paddy conditions, ECHORC (Watergrass (Calif.)); format: in vivo; conditions: flooded paddy; for ECHORC: herbicidal effect rating 0-9, three to four weeks after treatment; on herbicidal effect rating, ECHORC: meaning of each grade not given here
[2] = system: Cyperus iria; experiment: Preemergence weed control under flooded paddy conditions, CYPIR (Rice Flatsedge); format: in vivo; conditions: flooded paddy; for CYPIR: herbicidal effect rating 0-9, three to four weeks after treatment; on herbicidal effect rating, CYPIR: meaning of each grade not given here
[3] = system: Cyperus serotinus, Rottb.; experiment: Preemergence weed control under flooded paddy conditions, CYPSE (Flatsedge); format: in vivo; conditions: for CYPSE: herbicidal effect rating 0-9, three to four weeks after treatment; on herbicidal effect rating, CYPSE: meaning of each grade not given here
[4] = system: Monochoria vaginalis, Presl.; experiment: Preemergence weed control under flooded paddy conditions, MOOVA (Monochoria); format: in vivo; conditions: flooded paddy; for MOOVA: herbicidal effect rating 0-9, three to four weeks after treatment; on herbicidal effect rating, MOOVA: meaning of each grade not given here
[5] = system: Sagittaria pygmaea, L.; experiment: Preemergence weed control under flooded paddy conditions, SAGPY (Arrowhead (Pygmaea)); format: in vivo; conditions: flooded paddy; for SAGPY: herbicidal effect rating 0-9, three to four weeks after treatment; on herbicidal effect rating, SAGPY: meaning of each grade not given here
[6] = system: Oryza sativa, (L.) Tebonnet; experiment: Rice tolerance to post-transplant applications under flooded paddy conditions (Example 187), ORYSAT (Rice, Tebonnet); conditions: for ORYSAT: herbicidal effect rating 0-9, three to four weeks after treatment
[7] = Rate 0.0320 kg/ha, preemergence weeds, rated three to four weeks after treatment
[8] = Rate 0.0620 kg/ha, preemergence weeds, rated three to four weeks after treatment
[9] = Rate 0.1250 kg/ha, preemergence weeds, rated three to four weeks after treatment
[10] = Rate 0.2500 kg/ha, preemergence weeds, rated three to four weeks after treatment
[11] = Rate 0.0320 kg/ha, rated three to four weeks after treatment
[12] = Rate 0.0620 kg/ha, rated three to four weeks after treatment
[13] = Rate 0.1250 kg/ha, rated three to four weeks after treatment
[14] = Rate 0.2500 kg/ha, rated three to four weeks after treatment
[15] = 0.0320 kg/ha, preemergence, rated three to four weeks after treatment
[16] = 0.0620 kg/ha, preemergence weeds
[17] = 0.1250 kg/ha, preemergence weeds
[18] = 0.2500 kg/ha, preemergence weeds
[19] = Rate 0.0313 kg/ha, preemergence, rated three to four weeks after treatment
[20] = Rate 0.0625 kg/ha, preemergence, rated three to four weeks after treatment
[21] = Rate 0.1250 kg/ha, preemergence, rated three to four weeks after treatment
[22] = Rate 0.2500 kg/ha, preemergence, rated three to four weeks after treatment
[23] = 0.0320 kg/ha, preemergence weeds
[24] = Rate 0.0320 kg/ha, preemergence, rated three to four weeks after treatment
[25] = Rate 0.0620 kg/ha, preemergence, rated three to four weeks after treatment
[26] = 0.0313 kg/ha, preemergence weeds, rated three to four weeks after treatment
[27] = 0.0625 kg/ha, preemergence weeds, rated three to four weeks after treatment
[28] = 0.1250 kg/ha, preemergence weeds, rated three to four weeks after treatment
[29] = 0.2500 kg/ha, preemergence weeds, rated three to four weeks after treatment

C#CCOC(=O)COc1cccc(-c2nsc3ccc(-n4c(=O)cc(C(F)(F)F)n(C)c4=O)cc23)c1 [Example 326, Acetic acid, {m-{5-[3,6-dihydro-3-methyl-2,6-dioxo-4-(trifluoromethyl)-1(2H)-pyrimidinyl]-1,2-benzisothiazol-3-yl}phenoxy}-, 2-propynyl ester]
8.5: herbicidal effect rating, ECHORC [1, 8]
6.0: herbicidal effect rating, CYPIR [2, 7]
5.5: herbicidal effect rating, ECHORC [1, 7] | herbicidal effect rating, SAGPY [5, 9] | herbicidal effect rating ORYSAT [6, 11] | herbicidal effect rating ORYSAT [6, 12] | herbicidal effect rating ORYSAT [6, 13] | herbicidal effect rating ORYSAT [6, 14]
4.0: herbicidal effect rating, CYPSE [3, 7]
7.5: herbicidal effect rating, CYPSE [3, 10]
1.0: herbicidal effect rating, SAGPY [5, 8]
9.0: herbicidal effect rating, ECHORC [1, 9] | herbicidal effect rating, ECHORC [1, 10] | herbicidal effect rating, CYPIR [2, 10] | herbicidal effect rating, MOOVA [4, 7] | herbicidal effect rating, MOOVA [4, 8] | herbicidal effect rating, MOOVA [4, 9] | herbicidal effect rating, MOOVA [4, 10] | herbicidal effect rating, SAGPY [5, 10]
0.0: herbicidal effect rating, SAGPY [5, 7]
4.5: herbicidal effect rating, CYPSE [3, 8] | herbicidal effect rating, CYPSE [3, 9]
7.0: herbicidal effect rating, CYPIR [2, 8] | herbicidal effect rating, CYPIR [2, 9]

COC(=O)COc1ccc(I)cc1-c1nsc2ccc(-n3c(=O)cc(C(F)(F)F)n(C)c3=O)cc12 [Example 459, Acetic acid, {2-{5-[3,6-dihydro-3-methyl-2,6-dioxo-4-(trifluoromethyl)-1(2H)-pyrimidinyl]-1,2-benzisothiazol-3-yl}-4-iodophenoxy}-, methyl ester]
7.0: ECHORC herbicidal rating [1, 15] | ECHORC [1, 16] | MOOVA [4, 17] | MOOVA [4, 18]
9.0: ECHORC [1, 17] | ECHORC [1, 18]
0.0: CYPIR herbicidal rating [2, 15] | CYPSE herbicidal rating [3, 15] | CYPSE [3, 16] | CYPSE [3, 17] | SAGPY herbicidal rating [5, 15] | SAGPY [5, 16] | SAGPY [5, 17] | SAGPY [5, 18]
2.0: CYPIR [2, 16] | ORYSAT herbicidal rating (rice tolerance) ([6]; 0.0320 kg/ha, rated three to four weeks after treatment)
3.0: CYPSE [3, 18] | MOOVA herbicidal rating [4, 15]
4.0: CYPIR [2, 17] | CYPIR [2, 18] | ORYSAT ([6]; 0.0620 kg/ha)
5.0: MOOVA [4, 16] | ORYSAT ([6]; 0.1250 kg/ha) | ORYSAT ([6]; 0.2500 kg/ha)

CCOc1nc(C(F)(F)F)cc(=O)n1-c1ccc2snc(-c3cc(C)ccc3OCC(=O)OC)c2c1 [Example 246, Methyl {{2-{5-[2-ethoxy-6-oxo-4-(trifluoromethyl)-1(6H)-pyrimidinyl]-1,2-benzisothiazol-3-yl}-p-tolyl}oxy}acetate]
2.0: CYPIR herbicidal effect rating [2, 20] | SAGPY herbicidal effect rating [5, 21] | SAGPY herbicidal effect rating [5, 22] | ORYSAT herbicidal effect rating [6, 13] | ORYSAT herbicidal effect rating [6, 14]
9.0: ECHORC herbicidal effect rating [1, 21] | ECHORC herbicidal effect rating [1, 22] | MOOVA herbicidal effect rating [4, 19] | MOOVA herbicidal effect rating [4, 20] | MOOVA herbicidal effect rating [4, 21] | MOOVA herbicidal effect rating [4, 22]
1.0: ORYSAT herbicidal effect rating ([6]; Rate 0.0625 kg/ha, rated three to four weeks after treatment)
0.0: CYPIR herbicidal effect rating [2, 19] | CYPSE herbicidal effect rating [3, 19] | CYPSE herbicidal effect rating [3, 20] | CYPSE herbicidal effect rating [3, 21] | SAGPY herbicidal effect rating [5, 19] | SAGPY herbicidal effect rating [5, 20] | ORYSAT herbicidal effect rating ([6]; Rate 0.0313 kg/ha, rated three to four weeks after treatment)
6.0: ECHORC herbicidal effect rating [1, 19]
4.0: CYPIR herbicidal effect rating [2, 21] | CYPIR herbicidal effect rating [2, 22]
7.0: ECHORC herbicidal effect rating [1, 20]

CCOCN(C(=O)c1nsc2ccc(-n3c(=O)cc(C(F)(F)F)n(C)c3=O)cc12)S(=O)(=O)Cc1ccccc1 [Example 440, 1,2-Benzisothiazole-3-carboxamide, N-(benzylsulfonyl)-5-[3,6-dihydro-3-methyl-2,6-dioxo-4-(trifluoromethyl)-1(2H)-pyrimidinyl]-N-(ethoxymethyl)-]
9.0: ECHORC [1, 17] | ECHORC [1, 18] | CYPIR [2, 16] | CYPIR [2, 17] | CYPIR [2, 18] | CYPSE [3, 16] | CYPSE [3, 17] | CYPSE [3, 18] | MOOVA [4, 16] | MOOVA [4, 17] | MOOVA [4, 18] | SAGPY [5, 18]
4.0: SAGPY [5, 23] | ORYSAT ([6]; 0.0620 kg/ha) | ORYSAT ([6]; 0.1250 kg/ha) | ORYSAT ([6]; 0.2500 kg/ha)
7.0: ECHORC [1, 16] | MOOVA [4, 23] | SAGPY [5, 17]
3.0: ORYSAT ([6]; 0.0320 kg/ha)
5.0: ECHORC [1, 23] | CYPIR [2, 23]
6.0: CYPSE [3, 23] | SAGPY [5, 16]

Cn1c(C(F)(F)F)cc(=O)n(-c2ccc3snc(COCc4ccc(Cl)c(Cl)c4)c3c2)c1=O [Example 586, 2,4(1H,3H)-Pyrimidinedione, 3-{3-{[(3,4-dichlorobenzyl)oxy]methyl}-1,2-benzisothiazol-5-yl}-1-methyl-6-(trifluoromethyl)-]
8.5: herbicidal effect rating, CYPIR [2, 25]
0.0: herbicidal effect rating, CYPSE [3, 24] | herbicidal effect rating, CYPSE [3, 25] | herbicidal effect rating, SAGPY [5, 24] | herbicidal effect rating, SAGPY [5, 25] | herbicidal effect rating, SAGPY [5, 21] | herbicidal effect rating, SAGPY [5, 22]
2.0: herbicidal effect rating ORYSAT [6, 12] | herbicidal effect rating ORYSAT [6, 13] | herbicidal effect rating ORYSAT [6, 14]
6.5: herbicidal effect rating, MOOVA [4, 25]
1.0: herbicidal effect rating ORYSAT [6, 11]
8.0: herbicidal effect rating, ECHORC [1, 24] | herbicidal effect rating, CYPIR [2, 24]
9.0: herbicidal effect rating, ECHORC [1, 25] | herbicidal effect rating, ECHORC [1, 21] | herbicidal effect rating, ECHORC [1, 22] | herbicidal effect rating, CYPIR [2, 21] | herbicidal effect rating, CYPIR [2, 22] | herbicidal effect rating, MOOVA [4, 24] | herbicidal effect rating, MOOVA [4, 21] | herbicidal effect rating, MOOVA [4, 22]
4.5: herbicidal effect rating, CYPSE [3, 21] | herbicidal effect rating, CYPSE [3, 22]

C=CCOCc1nsc2ccc(-n3c(=O)cc(C(F)(F)F)n(C)c3=O)cc12 [Example 196, 3-{3-[(Allyloxy)methyl]-1,2-benzisothiazol-5-yl}-1-methyl-6-(trifluoromethyl)-2,4(1H,3H)-pyrimidinedione]
0.0: herbicidal effect rating, ECHORC [1, 26] | herbicidal effect rating, CYPIR [2, 26] | herbicidal effect rating, CYPIR [2, 27] | herbicidal effect rating, SAGPY [5, 26] | herbicidal effect rating, SAGPY [5, 27] | herbicidal effect rating, SAGPY [5, 28] | herbicidal effect rating, SAGPY [5, 29]
6.0: herbicidal effect rating, CYPSE [3, 28] | herbicidal effect rating, ORYSAT (rice tolerance) ([6]; 0.0625 kg/ha, rated three to four weeks after treatment)
1.0: herbicidal effect rating, CYPIR [2, 28]
2.0: herbicidal effect rating, ECHORC [1, 27] | herbicidal effect rating, CYPSE [3, 26]
9.0: herbicidal effect rating, CYPSE [3, 29] | herbicidal effect rating, MOOVA [4, 26] | herbicidal effect rating, MOOVA [4, 27] | herbicidal effect rating, MOOVA [4, 28] | herbicidal effect rating, MOOVA [4, 29]
4.0: herbicidal effect rating, ECHORC [1, 28] | herbicidal effect rating, ECHORC [1, 29] | herbicidal effect rating, CYPIR [2, 29] | herbicidal effect rating, CYPSE [3, 27] | herbicidal effect rating, ORYSAT (rice tolerance) ([6]; 0.0313 kg/ha, rated three to four weeks after treatment)
8.0: herbicidal effect rating, ORYSAT (rice tolerance) ([6]; 0.1250 kg/ha, rated three to four weeks after treatment) | herbicidal effect rating, ORYSAT (rice tolerance) ([6]; 0.2500 kg/ha, rated three to four weeks after treatment)
